Data published in patent US20090258836A1, “EFFECTIVE DELIVERY OF CROSS-SPECIES A3 ADENOSINE-RECEPTOR ANTAGONISTS TO REDUCE INTRAOCULAR PRESSURE” (The Trustees of The University of Pennsylvania, priority 2006, published 2009).

Assays:
[1] = system: mouse IOP; experiment: Mouse IOP after topical application, invasive servo-null micropipette system (SNMS); assay type: in vivo, Black Swiss mice; conditions: after topical application
Method in brief: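 Black Swiss outbred mice, 7-9 weeks, under i.p. ketamine plus topical proparacaine. Drugs applied topically as droplets with <2% DMSO (none for hydrophilic compounds) and 0.0005% benzalkonium chloride, 295-300 mOsm. IOP measured invasively by servo-null micropipette 10 min after a single application.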

[2] = molecular target: T1, human A1 receptors (Homo sapiens, UniProt P30542); conditions: literature; read-out: Ki for the binding to human A1 receptors; cited from earlier work
T1 sequence (P30542 1-326): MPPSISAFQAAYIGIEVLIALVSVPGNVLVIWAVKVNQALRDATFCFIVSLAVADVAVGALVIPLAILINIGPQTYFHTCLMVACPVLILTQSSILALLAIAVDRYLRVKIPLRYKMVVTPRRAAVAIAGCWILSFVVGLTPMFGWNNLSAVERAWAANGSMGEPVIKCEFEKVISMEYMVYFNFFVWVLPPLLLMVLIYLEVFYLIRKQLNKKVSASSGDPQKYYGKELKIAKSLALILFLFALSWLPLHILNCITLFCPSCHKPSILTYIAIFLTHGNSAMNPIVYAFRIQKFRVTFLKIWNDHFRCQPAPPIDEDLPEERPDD

[3] = molecular target: human A2A receptors (Homo sapiens, UniProt P29274); conditions: literature; read-out: Ki for the binding to human A2A receptors; cited from earlier work
human A2A receptors, sequence (P29274 whole entry): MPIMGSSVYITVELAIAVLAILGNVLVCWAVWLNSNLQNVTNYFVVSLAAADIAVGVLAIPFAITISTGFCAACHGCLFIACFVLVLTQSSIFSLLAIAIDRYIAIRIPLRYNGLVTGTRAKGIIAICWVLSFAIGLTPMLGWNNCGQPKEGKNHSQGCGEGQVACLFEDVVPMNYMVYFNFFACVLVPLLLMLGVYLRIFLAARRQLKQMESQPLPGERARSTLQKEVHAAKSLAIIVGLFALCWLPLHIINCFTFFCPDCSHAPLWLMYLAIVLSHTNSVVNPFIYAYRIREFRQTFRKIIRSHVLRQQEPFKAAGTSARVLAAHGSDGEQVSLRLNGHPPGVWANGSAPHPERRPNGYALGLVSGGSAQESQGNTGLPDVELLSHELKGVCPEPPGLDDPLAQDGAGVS

In the case of `CCOC(=O)C1=C(C)NC(c2ccccc2)=C(C(=O)OCc2ccccc2)C1C#Cc1ccccc1` (racemic) [MRS-1191, 3-ethyl 5-benzyl-2-methyl-6-phenyl-4-phenylethynyl-1,4-(±)-dihydropyridine-3,5-dicarboxylate], the “time to begin to lower IOP, invasive servo-null technique” value [1] is listed as “within about a minute”, the Ki [2] is listed as 40.1 µM and the Ki [3] is listed as over 100 µM.
